Measurements taken from ChEMBL document CHEMBL4715862, “Anti-HIV Tigliane Diterpenoids from Wikstroemia scytophylla” (J Nat Prod, 2020).

Experiments:
[1] = tested on: Human immunodeficiency virus 1; assay: Antiviral activity against HIV-1 NL4-3 infected in human MT4 cells assessed as reduction in p24 gag protein expression incubated for 48 hrs by ELISA; format: functional, organism-based; conditions: Human immunodeficiency virus 1, NL4-3, MT4, 48 h
[2] = Cytotoxicity against human MT4 cells assessed as reduction in cell viability after 48 hrs by CellTiter-Glo assay; format: cell-based
[3] = Selectivity ratio of CC50 for cytotoxicity against human MT4 cells to IC50 for antiviral activity against HIV-1 NL4-3 infected in human MT4 cells; format: toxicity, cell-based; conditions: read-out: Ratio CC50/IC50

Compound | IC50 [1] [nM] | CC50 at 48 h [2] [nM] | selectivity ratio [3]
CCCCCCCC(=O)O[C@@]12[C@H](OC(=O)c3ccccc3)[C@@H](C)[C@@]3(O)[C@H]([C@@H]1C2(C)C)[C@@H](O)C(CO)=C[C@]1(O)C(=O)C(C)=C[C@@H]31 | > 164 | > 164 | –
C=C(C)[C@]12C[C@@H](COC(=O)c3ccccc3)[C@@]34O[C@]5(O[C@@H]1[C@@H]3[C@@H]1O[C@]1(CO)[C@@H](O)[C@@]1(O)[C@H]4[C@H]([C@H](C)[C@@H]1OC(=O)c1ccccc1)[C@H](C)CCCCCC[C@H]5O)O2 | 0.07 | > 5 | –
CCCCCCCC(=O)O[C@@]12[C@H](OC(=O)c3ccccc3)[C@@H](C)[C@@]3(O)[C@@H](C(=O)C(CO)=C[C@]4(O)C(=O)C(C)=C[C@@H]34)[C@@H]1C2(C)C | 3.8 | > 164 | –
CCCCCCCC(=O)O[C@@]12[C@H](OC(=O)c3ccccc3)[C@@H](C)[C@@]3(O)C(=C[C@](O)(CO)C[C@]4(O)C(=O)C(C)=C[C@@H]34)[C@@H]1C2(C)C | > 164 | > 164 | –
CCCCCCCC(=O)O[C@@]12[C@H](OC(=O)c3ccccc3)[C@@H](C)[C@@]3(O)[C@H]([C@@H]1C2(C)C)[C@@H](OO)C(CO)=C[C@]1(O)C(=O)C(C)=C[C@@H]31 | – | – | < 5
CCCCCCCC(=O)O[C@@]12[C@H](OC(=O)CCCCC)[C@@H](C)[C@@]3(O)[C@@H](C(=O)C(CO)=C[C@]4(O)C(=O)C(C)=C[C@@H]34)[C@@H]1C2(C)C | > 164 | > 164 | –
CCCCCCCC(=O)O[C@@]12[C@H](OC(=O)c3ccccc3)[C@@H](C)[C@]3(O)[C@@H]4C=C(C)C(=O)[C@@]4(O)[C@H](O)C(CO)=C[C@H]3[C@@H]1C2(C)C | 12.8 | > 164 | –
